Test results reported in ChEMBL document CHEMBL5257023, “Identification of leads for antiproliferative activity on MDA-MB-435 human breast cancer cells through pharmacophore and CYP1A1-mediated metabolism” (Eur J Med Chem, 2016).

Experiments:
MDA-MB-435 [1] = experiment: Anticancer activity against human MDA-MB-435 cells assessed as cell growth at 10 uM incubated for 48 hrs by SRB assay; assay type: functional; conditions: read-out: Activity
MDA-MB-468 [2] = experiment: Anticancer activity against human MDA-MB-468 cells assessed as inhibition of cell growth incubated for 48 hrs by SRB assay; assay type: functional; conditions: for CC50: read-out: LC50 (the source's name)
MDA-MB-435 [3] = experiment: Anticancer activity against human MDA-MB-435 cells assessed as cell growth at 1 uM incubated for 48 hrs by SRB assay; assay type: functional; conditions: read-out: Activity
NCI-H226 [4] = experiment: Anticancer activity against human NCI-H226 cells assessed as inhibition of cell growth incubated for 48 hrs by SRB assay; assay type: functional
NCI-H226 [5] = experiment: Anticancer activity against human NCI-H226 cells assessed as cell growth at 0.1 uM incubated for 48 hrs by SRB assay; assay type: functional; conditions: read-out: Activity
MDA-MB-435 [6] = experiment: Anticancer activity against human MDA-MB-435 cells assessed as cell growth at 0.1 uM incubated for 48 hrs by SRB assay; assay type: functional; conditions: read-out: Activity
MCF7 [7] = experiment: Anticancer activity against human MCF7 cells assessed as cell growth at 1 uM incubated for 48 hrs by SRB assay; assay type: functional; conditions: read-out: Activity
CYP1A1 [8] = target: T1, CYP1A1 (Homo sapiens, UniProt P04798); experiment: Inhibition of recombinant CYP1A1 (unknown origin) assessed as residual enzyme activity using 7-ethoxyresorufin as substrate at 1 uM incubated for 15 mins by resorufin dye based spectrofluorimetry (reference value: 100%); assay type: ADME; conditions: recombinant CYP1A1, probe 7-ethoxyresorufin, read-out: Activity
T1 sequence (P04798 whole entry): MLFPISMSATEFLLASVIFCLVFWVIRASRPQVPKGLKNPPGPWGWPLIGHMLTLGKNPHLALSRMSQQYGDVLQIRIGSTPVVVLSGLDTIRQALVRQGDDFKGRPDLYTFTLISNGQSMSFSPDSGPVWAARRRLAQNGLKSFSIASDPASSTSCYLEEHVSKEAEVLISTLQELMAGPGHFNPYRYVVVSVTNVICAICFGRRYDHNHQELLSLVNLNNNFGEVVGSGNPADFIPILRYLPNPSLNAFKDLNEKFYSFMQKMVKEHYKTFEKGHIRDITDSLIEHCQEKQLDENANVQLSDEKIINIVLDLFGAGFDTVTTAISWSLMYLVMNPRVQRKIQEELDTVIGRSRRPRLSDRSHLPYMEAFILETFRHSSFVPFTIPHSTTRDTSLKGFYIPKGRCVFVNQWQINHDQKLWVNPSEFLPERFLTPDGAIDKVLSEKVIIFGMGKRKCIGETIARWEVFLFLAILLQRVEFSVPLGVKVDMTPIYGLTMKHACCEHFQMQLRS

CYP1A1 [9] = target: T1, CYP1A1; experiment: Inhibition of recombinant CYP1A1 (unknown origin) assessed as residual enzyme activity using 7-ethoxyresorufin as substrate at 0.01 uM incubated for 15 mins by resorufin dye based spectrofluorimetry (reference value: 100%); assay type: ADME; conditions: recombinant CYP1A1, probe 7-ethoxyresorufin, read-out: Activity
MDA-MB-468 [10] = experiment: Anticancer activity against human MDA-MB-468 cells assessed as cell growth at 100 uM incubated for 48 hrs by SRB assay; assay type: functional; conditions: read-out: Activity
NCI-H226 [11] = experiment: Anticancer activity against human NCI-H226 cells assessed as cell growth at 1 uM incubated for 48 hrs by SRB assay; assay type: functional; conditions: read-out: Activity
CYP1A1 [12] = target: T1, CYP1A1; experiment: Inhibition of recombinant CYP1A1 (unknown origin) assessed as residual enzyme activity using 7-ethoxyresorufin as substrate at 0.1 uM incubated for 15 mins by resorufin dye based spectrofluorimetry (reference value: 100%); assay type: ADME; conditions: recombinant CYP1A1, probe 7-ethoxyresorufin, read-out: Activity
CYP1A1 [13] = target: T1, CYP1A1; experiment: Inhibition of recombinant CYP1A1 (unknown origin) assessed as residual enzyme activity using 7-ethoxyresorufin as substrate at 100 uM incubated for 15 mins by resorufin dye based spectrofluorimetry (reference value: 100%); assay type: ADME; conditions: recombinant CYP1A1, probe 7-ethoxyresorufin, read-out: Activity
MDA-MB-435 [14] = experiment: Anticancer activity against human MDA-MB-435 cells assessed as cell growth at 100 uM incubated for 48 hrs by SRB assay; assay type: functional; conditions: read-out: Activity
MCF7 [15] = experiment: Anticancer activity against human MCF7 cells assessed as cell growth at 10 uM incubated for 48 hrs by SRB assay; assay type: functional; conditions: read-out: Activity
MDA-MB-468 [16] = experiment: Anticancer activity against human MDA-MB-468 cells assessed as cell growth at 10 uM incubated for 48 hrs by SRB assay; assay type: functional; conditions: read-out: Activity
Cytochrome P450 1A1 [17] = target: T2, Cytochrome P450 1A1 (Homo sapiens, UniProt P04798); experiment: Inhibition of recombinant CYP1A1 (unknown origin) assessed as decrease in EROD activity using 7-ethoxyresorufin as substrate incubated for 15 mins by resorufin dye based spectrofluorimetry; assay type: ADME
T2 sequence (P04798 whole entry): T1 sequence (P04798 whole entry)

MDA-MB-468 [18] = experiment: Anticancer activity against human MDA-MB-468 cells assessed as cell growth at 0.1 uM incubated for 48 hrs by SRB assay; assay type: functional; conditions: read-out: Activity
MCF7 [19] = experiment: Anticancer activity against human MCF7 cells assessed as inhibition of cell growth incubated for 48 hrs by SRB assay; assay type: functional; conditions: for CC50: read-out: LC50 (the source's name)
CYP1A1 [20] = target: T1, CYP1A1; experiment: Inhibition of recombinant CYP1A1 (unknown origin) assessed as residual enzyme activity using 7-ethoxyresorufin as substrate at 10 uM incubated for 15 mins by resorufin dye based spectrofluorimetry (reference value: 100%); assay type: ADME; conditions: recombinant CYP1A1, probe 7-ethoxyresorufin, read-out: Activity
MDA-MB-468 [21] = experiment: Anticancer activity against human MDA-MB-468 cells assessed as cell growth at 1 uM incubated for 48 hrs by SRB assay; assay type: functional; conditions: read-out: Activity
NCI-H226 [22] = experiment: Anticancer activity against human NCI-H226 cells assessed as cell growth at 100 uM incubated for 48 hrs by SRB assay; assay type: functional; conditions: read-out: Activity
NCI-H226 [23] = experiment: Anticancer activity against human NCI-H226 cells assessed as cell growth at 10 uM incubated for 48 hrs by SRB assay; assay type: functional; conditions: read-out: Activity
MCF7 [24] = experiment: Anticancer activity against human MCF7 cells assessed as cell growth at 0.1 uM incubated for 48 hrs by SRB assay; assay type: functional; conditions: read-out: Activity
MDA-MB-435 [25] = experiment: Anticancer activity against human MDA-MB-435 cells assessed as inhibition of cell growth incubated for 48 hrs by SRB assay; assay type: functional
MCF7 [26] = experiment: Anticancer activity against human MCF7 cells assessed as cell growth at 100 uM incubated for 48 hrs by SRB assay; assay type: functional; conditions: read-out: Activity
CYP1A1 [27] = target: T1, CYP1A1; experiment: Inhibition of recombinant CYP1A1 (unknown origin) assessed as residual enzyme activity using 7-ethoxyresorufin as substrate at 50 uM incubated for 15 mins by resorufin dye based spectrofluorimetry (reference value: 100%); assay type: ADME; conditions: recombinant CYP1A1, probe 7-ethoxyresorufin, read-out: Activity
Cytochrome P450 1A1 [28] = target: T2, Cytochrome P450 1A1; experiment: Inhibition of recombinant CYP1A1 (unknown origin) assessed as decrease in EROD activity using 7-ethoxyresorufin as substrate upto 100 uM incubated for 15 mins by resorufin dye based spectrofluorimetry; assay type: ADME; conditions: recombinant enzyme, 0.25 h

SMILES	growth at 10 µM (MDA-MB-435 [1]) [%]	GI50 (MDA-MB-468 [2]) [µM]	TGI (MDA-MB-468 [2]) [µM]	CC50 (MDA-MB-468 [2]) [µM]	growth at 1 µM (MDA-MB-435 [3]) [%]	GI50 (NCI-H226 [4]) [µM]	LC50 (concentration killing 50% of cells) (NCI-H226 [4]) [µM]	TGI (NCI-H226 [4]) [µM]	growth at 0.1 µM (NCI-H226 [5]) [%]	growth at 0.1 µM (MDA-MB-435 [6]) [%]	growth at 1 µM (MCF7 [7]) [%]	activity at 0.25 h, 1 µM (CYP1A1 [8]) [%]	activity at 0.25 h, 0.01 µM (CYP1A1 [9]) [%]	growth at 100 µM (MDA-MB-468 [10]) [%]	growth at 1 µM (NCI-H226 [11]) [%]	activity at 0.25 h, 0.1 µM (CYP1A1 [12]) [%]	activity at 0.25 h, 100 µM (CYP1A1 [13]) [%]	growth at 100 µM (MDA-MB-435 [14]) [%]	growth at 10 µM (MCF7 [15]) [%]	growth at 10 µM (MDA-MB-468 [16]) [%]	other results
Cc1ccc(-c2cc3cc(F)ccc3[nH]2)cc1N	30.6	> 100	> 100	> 100	40	> 100	> 100	> 100	100	47.8	73.1	35.3	96.8	96.8	100	52.6	8.54	23.1	70.9	99.8	IC50 (Cytochrome P450 1A1 [17]): 0.13 µM; growth at 0.1 µM (MDA-MB-468 [18]): 100%; GI50 (MCF7 [19]): > 100 µM; TGI (MCF7 [19]): > 100 µM; CC50 (MCF7 [19]): > 100 µM; activity at 0.25 h, 10 µM (CYP1A1 [20]): 12.8%; growth at 1 µM (MDA-MB-468 [21]): 100%; growth at 100 µM (NCI-H226 [22]): 90%; growth at 10 µM (NCI-H226 [23]): 98.9%; growth at 0.1 µM (MCF7 [24]): 100%; GI50 (MDA-MB-435 [25]): < 0.1 µM; LC50 (MDA-MB-435 [25]): > 100 µM; TGI (MDA-MB-435 [25]): > 100 µM; growth at 100 µM (MCF7 [26]): 67.1%; activity at 0.25 h, 50 µM (CYP1A1 [27]): 10.6%
C[C@H](Oc1ccc(Cl)cc1)C(=O)Nc1sc2c(c1C(N)=O)CCCC2	100	> 100	> 100	> 100	100	> 100	> 100	> 100	80.9	100	76.3	97.2	100	65.5	72.9	97.7	102	86.9	71.7	78.7	growth at 0.1 µM (MDA-MB-468 [18]): 100%; inhibition (INH) (Cytochrome P450 1A1 [28]): Not Active; GI50 (MCF7 [19]): 56.3 µM; TGI (MCF7 [19]): > 100 µM; CC50 (MCF7 [19]): > 100 µM; activity at 0.25 h, 10 µM (CYP1A1 [20]): 98.2%; growth at 1 µM (MDA-MB-468 [21]): 100%; growth at 100 µM (NCI-H226 [22]): 61.9%; growth at 10 µM (NCI-H226 [23]): 68.1%; growth at 0.1 µM (MCF7 [24]): 81.5%; GI50 (MDA-MB-435 [25]): > 100 µM; LC50 (MDA-MB-435 [25]): > 100 µM; TGI (MDA-MB-435 [25]): > 100 µM; growth at 100 µM (MCF7 [26]): 27.2%; activity at 0.25 h, 50 µM (CYP1A1 [27]): 97.4%
Cc1nn(C[C@@H](O)COc2ccc3c(C)cc(=O)oc3c2)c(C)c1C	100	76.6	> 100	> 100	100	96.5	> 100	> 100	88.9	100	74.2	96.7	99.3	33.7	77.5	98.4	103	77.9	69.2	94.8	growth at 0.1 µM (MDA-MB-468 [18]): 100%; inhibition (INH) (Cytochrome P450 1A1 [28]): Not Active; GI50 (MCF7 [19]): 52.5 µM; TGI (MCF7 [19]): > 100 µM; CC50 (MCF7 [19]): > 100 µM; activity at 0.25 h, 10 µM (CYP1A1 [20]): 96.7%; growth at 1 µM (MDA-MB-468 [21]): 98%; growth at 100 µM (NCI-H226 [22]): 49.1%; growth at 10 µM (NCI-H226 [23]): 72.8%; growth at 0.1 µM (MCF7 [24]): 80.4%; GI50 (MDA-MB-435 [25]): > 100 µM; LC50 (MDA-MB-435 [25]): > 100 µM; TGI (MDA-MB-435 [25]): > 100 µM; growth at 100 µM (MCF7 [26]): 25.3%; activity at 0.25 h, 50 µM (CYP1A1 [27]): 101%
